Source: patent US20240240226A1, “FLUOROGENIC ASSAY FOR RAPID SCREENING OF BACTERIAL BETA-LACTAMASE ACTIVITY” (The Board of Trustees of the Leland Stanford Junior …, priority 2021, published 2024)

Legend:
[1] = Stability test in H2O2 in PBS; assay type: physicochemical; details: room temperature
Method: FIG. 2 illustrates the characterization of CDA with recombinant TEM-1 Bla, esterase, HRP, and H2O2. a) Stability test of CDA in different concentrations of H2O2 in PBS. The signal of PBS was subtracted and the absolute values were plotted. b) Fluorescence enhancement of CDA treated with esterase […], TEM-1 Bla (100 nM) and H2O2 (100 μM or 1 mM). c) Activation of CDA by esterase (1 μg/mL) and TEM-1 Bla (100 nM) with or without oxygen in the reaction. Glass flasks with working solution were continuously vacuumed to maintain a deoxidized environment. Samples were transferred and scanned immediate at each time point in a black 96 well plate. Error bars represent ±SD, n=3. d) Fluorescence enhancement of CDA treated with esterase (1 μg/mL), TEM-1 Bla (100 nM), HRP (1 unit/ml), and H2O2 (1 μM). e) Fluorescence enhancement of different concentrations of CDA treated with esterase (1 μg/mL), TEM-1 Bla (100 nM) and H2O2 (1 mM). f) Fluorescence enhancement of CDA treated with indicated amounts of β-lactamases, esterase (1 μg/mL) and H2O2 (1 mM) after incubation at room temperature for 2 h. […] Data were collected on a Tecan Safire microplate reader with excitation at 570 nm and emission at 600 nm. […]
As oxidation is the essential step in converting β-lactamase/esterase processed CDA to resorufin, the stability of CDA was evaluated in different concentrations of H2O2 (FIG. 2a). […]

[2] = tested on: β-lactamases (TEM-1 Bla, AmpC, BlaC, IMP-1, OXA-48, KPC-3); test: Detection of recombinant β-lactamases by CDA with esterase and H2O2; assay type: biochemical; details: all β-lactamases; esterase 1 μg/mL, H2O2 1 mM, 2 hours, room temperature; 3x SD of negative controls
K. pneumoniae/KPC = test: CDA/H2O2 detection of K. pneumoniae expressing KPC carbapenemase; assay type: cell-based; details: clinical isolate, H2O2 1 mM, within 2-3 hours
Method: FIG. 3 illustrates the characterization of CDA with HRP, H2O2, E. coli expressing TEM-1 Bla (E. coli/TEM-1) and IMP-1 carbapenemase (E. coli/IMP-1), and K. pneumoniae expressing KPC carbapenemase (K. pneumoniae/KPC). a) Fluorescence enhancement of CDA incubated with different concentrations of E. coli expressing TEM-1 Bla. b) Fluorescence enhancement of CDA; HRP (1 unit/mL), H2O2 (1 μM), and either viable E. coli expressing TEM-1 Bla or bacterial lysate extracted from equal c.f.u. per milliliter. c) Fluorescence enhancement of CDA incubated with different concentrations of E. coli expressing TEM-1 Bla (H2O2, 1 mM). d) Fluorescent intensity of E. coli and E. coli/TEM-1 preincubated with CDA for 20 hours upon addition of H2O2 (500 μM) for 5 min. Error bars represent ±SD, n=3. * p<0.0332; **p<0.0021, ****p<0.0001, ns: not significant. e) Fluorescence enhancement of CDA incubated with different concentrations of E. coli expressing IMP-1 carbapenemase in the presence of H2O2 (1 mM). f) Fluorescence enhancement of CDA incubated with different concentrations of K. pneumoniae expressing KPC carbapenemase (H2O2, 1 mM). […] Data were collected on a Tecan Safire microplate reader with excitation at 570 nm and emission at 600 nm. […]
CDA was also tested for detecting K. pneumoniae. […] Similar to E. coli/KPC-3, 10^6 c.f.u./mL KPC-positive K. pneumoniae could be detected within 2-3 hours. […]

Compound: CC(=O)Oc1ccc2c(c1)Oc1cc(OC(C)=O)ccc1N2C(=O)OCc1ccc(SCC2=C(C(=O)O)N3C(=O)[C@@H](NC(=O)Cc4ccccc4)[C@H]3SC2)cc1 [CDA, 3-(((4-(((3,7-diacetoxy-10H-phenoxazine-10-carbonyl)oxy)methyl)phenyl)thio)methyl)-8-oxo-7-(2-phenylacetamido)-5-thia-1-azabicyclo[4.2.0]oct-2-ene-2-carboxylic acid]
- stability of the sulfur center in H2O2 (LC-MS) ([1]; H2O2 1 mM, 2 hours): stable
- spontaneous hydrolysis in H2O2 ([1]; up to 1 mM H2O2 in PBS, within 2 hours): Almost no spontaneous hydrolysis
- limit of detection of β-lactamases [2]: 1 femtomole
- bacteria concentration detected (K. pneumoniae/KPC): 10^6 c.f.u./mL
